Experiments:
[1] = tested on: PbmCherryLuci salivary gland sporozoites in HepG2 human hepatoma cells; experiment: In vitro infection assay: immune serum inhibition of sporozoite infection of HepG2 cells (FIG. 3); format: cell-based, Plasmodium berghei; settings: serum of five BALB/c mice immunised ten months prior, 1 in 20 dilution, 48 h, versus naive serum
Procedure: To initiate the in vitro infection assay, 30,000 HepG2 human hepatoma cells were seeded into a 96-well plate format the day before infection. The day of infection, freshly dissected PbmCherryLuci salivary gland sporozoites were incubated with a 1 in 20 dilution of either naïve BALB/c serum (from n=5 mice) or immune serum (from n=5 mice) in culture media and added to HepG2 wells in technical triplicate. Serum samples were not pooled, so the response from five individual mice was analysed independently. Forty-eight hours after infection the infected cells were fixed with 4% formaldehyde and imaged using an Opera Phenix High Content Imager (PerkinElmer). The number of parasites in each well was counted using the mCherry reporter expressed by these parasites, the average number of parasites between the technical triplicates averaged for each serum sample, and the average for each mouse presented.

[2] = tested on: P. falciparum salivary gland sporozoites; experiment: Chemoprophylaxis of humanised (FRG) mice infected with P. falciparum sporozoites (FIG. 10); format: in vivo; settings: FRG mouse with human hepatocytes, 300,000 sporozoites i.v.; four oral treatments 100 mg/kg at day 5, 5.5, 6, 6.5
Procedure: Four immunocompromised mice engrafted with human hepatocytes (FRG mice, Yecuris, OR, USA) were each infected intravenously with 300,000 freshly dissected P. falciparum salivary gland sporozoites. Three mice received no treatment, while one mouse received four oral treatments with 100 mg/kg Example 1A during P. falciparum liver stage development (at day 5, day 5.5, day 6 and day 6.5 post infection). […] On day 7 post infection all mice were bled, and the blood cultured under standard culture conditions at 4% hematocrit with 1% oxygen. Fresh hematocrit was added to the cultures each week to provide fresh host cells for infection, and cultures were analysed for the presence of blood parasites 2-3 times per week by inspection of Giemsa-stained thin blood smears.

SMILES: CCC1(CC)CC(=O)N(C2CCOc3ccc(C(=O)N[C@H]4CC(C)(C)Oc5ccccc54)cc32)C(=N)N1 (stereo partly drawn) [Example 1A, 4-(4,4-diethyl-2-imino-6-oxotetrahydropyrimidin-1(2H)-yl)-N—((S)-2,2-dimethylchroman-4-yl)chroman-6-carboxamide]
- inhibition of HepG2 infection by immune serum [1]: inhibition of infection using the serum from each of the five immunised mice
- blood parasites in culture of blood taken day 7 post infection [2]: remained negative for blood parasites over an eight-week observation period

Source: patent US20230355622A1, “METHODS OF CHEMOVACCINATION AGAINST PLASMODIUM INFECTIONS” (Merck Sharp & Dohme LLC, priority 2020, published 2023)
